# Measured values: US20230373939A1 (VERTEX PHARMACEUTICALS INCORPORATED, priority 2020, published 2023)
# Where two headings read alike, the source gives them in different places.
# Biological target: T1, F508del in NIH 3T3 cells (Homo sapiens, UniProt P13569, DEL508-508)
# T1 construct: expressed in transfected cells
# Assay: 3T3 assay: membrane potential optical assay for F508del correction
# Assay type: cell-based
# Conditions: for EC50: read-out: 3T3 EC50
# Text: 1. Membrane Potential Optical Methods for Assaying F508del Modulation Properties of Compounds
# The assay utilizes fluorescent voltage sensing dyes to measure changes in membrane potential using a fluorescent plate reader (e.g., FLTPR III, Molecular Devices, Inc.) as a readout for increase in functional F508del in NIH 3T3 cells. The driving force for the response is the creation of a chloride ion gradient in conjunction with channel activation by a single liquid addition step after the cells have previously been treated with compounds and subsequently loaded with a voltage sensing dye.
# 2. Identification of Corrector Compounds
# To identify correctors of F508del, a single-addition HTS assay format was developed. This HTS assay utilizes fluorescent voltage sensing dyes to measure changes in membrane potential on the FLIPR III as a measurement for increase in gating (conductance) of F508del in F508del NUT 3T3 cells. The F508del NUT 3T3 cell cultures were incubated with the corrector compounds at a range of concentrations for 18-24 hours at 37° C., and subsequently loaded with a redistribution dye. The driving force for the response is a Cl^− ion gradient in conjunction with channel activation with forskolin in a single liquid addition step using a fluorescent plate reader such as FLIPR III.
# Bath Solution #1: (in mM) NaCl 160, KCl 4.5, CaCl2 2, MgCl2 1, HEPES 10, pH 7.4 with NaOH.
# Chloride-free bath solution: Chloride salts in Bath Solution #1 (above) are substituted with gluconate salts.
# NIH3T3 mouse fibroblasts stably expressing F508del were used for optical measurements of membrane potential. The cells were maintained at 37° C. in 5% CO2 and 90% humidity in Dulbecco's modified Eagle's medium supplemented with 2 mM glutamine, 10% fetal bovine serum, 1×NEAA, b-ME, 1×pen/strep, and 25 mM HEPES in 175 cm^2 culture flasks. For all optical assays, the cells were seeded at ˜20,000/well in 384-well Matrigel-coated plates. For the correction assays, the cells were cultured at 37° C. with and without compounds for 16-24 hours.
# [1] = NIH3T3, NIH 3T3 cells, F508del, read-out: 3T3 Max Activity (%)
# [2] = NIH3T3, read-out: 3T3 Max Activity (%)
# T1 sequence (P13569 with tags, fused parts or gaps DEL508-508): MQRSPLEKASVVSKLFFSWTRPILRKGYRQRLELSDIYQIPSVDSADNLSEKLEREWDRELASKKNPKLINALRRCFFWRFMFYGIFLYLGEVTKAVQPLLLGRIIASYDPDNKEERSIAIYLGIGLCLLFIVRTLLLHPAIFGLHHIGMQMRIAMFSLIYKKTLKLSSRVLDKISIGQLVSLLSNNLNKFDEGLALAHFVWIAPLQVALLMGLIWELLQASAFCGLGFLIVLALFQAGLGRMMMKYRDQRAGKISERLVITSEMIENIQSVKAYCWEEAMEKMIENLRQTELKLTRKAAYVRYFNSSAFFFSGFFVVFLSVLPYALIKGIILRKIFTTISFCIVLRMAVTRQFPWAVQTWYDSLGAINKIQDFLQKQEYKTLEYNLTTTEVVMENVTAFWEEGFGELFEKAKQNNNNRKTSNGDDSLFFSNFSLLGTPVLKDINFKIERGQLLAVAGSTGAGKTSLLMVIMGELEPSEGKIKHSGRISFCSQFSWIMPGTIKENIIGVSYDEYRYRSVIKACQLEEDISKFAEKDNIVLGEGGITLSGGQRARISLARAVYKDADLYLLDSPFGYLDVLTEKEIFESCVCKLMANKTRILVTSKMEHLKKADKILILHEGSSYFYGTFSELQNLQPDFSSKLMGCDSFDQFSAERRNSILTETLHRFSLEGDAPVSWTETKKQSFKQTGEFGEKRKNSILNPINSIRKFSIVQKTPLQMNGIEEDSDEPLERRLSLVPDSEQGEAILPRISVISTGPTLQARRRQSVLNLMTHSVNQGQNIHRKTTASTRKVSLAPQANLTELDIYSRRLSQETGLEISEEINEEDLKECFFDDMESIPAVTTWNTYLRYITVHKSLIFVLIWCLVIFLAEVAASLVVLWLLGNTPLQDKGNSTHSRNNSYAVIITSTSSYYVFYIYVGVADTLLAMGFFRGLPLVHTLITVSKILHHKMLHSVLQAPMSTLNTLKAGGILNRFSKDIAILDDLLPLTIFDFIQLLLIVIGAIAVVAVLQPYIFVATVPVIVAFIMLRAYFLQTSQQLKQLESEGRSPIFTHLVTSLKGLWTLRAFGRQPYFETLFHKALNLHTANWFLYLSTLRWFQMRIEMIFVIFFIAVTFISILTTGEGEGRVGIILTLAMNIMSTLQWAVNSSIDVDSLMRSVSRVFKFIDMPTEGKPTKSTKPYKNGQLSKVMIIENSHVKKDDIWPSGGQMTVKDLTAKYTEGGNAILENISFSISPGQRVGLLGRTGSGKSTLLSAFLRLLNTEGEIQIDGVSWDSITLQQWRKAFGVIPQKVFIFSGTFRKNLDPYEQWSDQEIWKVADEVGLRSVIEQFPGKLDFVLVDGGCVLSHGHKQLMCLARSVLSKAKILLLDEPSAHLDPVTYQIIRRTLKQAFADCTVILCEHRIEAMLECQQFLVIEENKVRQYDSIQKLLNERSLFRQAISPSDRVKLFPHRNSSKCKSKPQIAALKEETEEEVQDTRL
Emax [1] [%],"EC50 (NIH 3T3 cells, F508del) [µM]",SMILES,Emax [2] [%]
30 to 60,3 to 30,"Nc1cccc(S(=O)(=O)Nc2nc(Oc3ccccc3)nc(-c3ccccc3)n2)c1 [Compound 126, 3-amino-N-(4-phenoxy-6-phenyl-1,3,5-triazin-2-yl)benzenesulfonamide]",–
30 to 60,–,"O=C(O)c1sc(NS(=O)(=O)c2ccccc2)nc1-c1ccccc1 [Compound 42, 4-phenyl-2-(phenylsulfonamido)thiazole-5-carboxylic acid]",–
< 30,–,"O=S(=O)(Nc1nn(-c2cccc(Cl)c2)cc1C1CCCCC1)c1ccccc1 [Compound 83, N-[1-(3-chlorophenyl)-4-cyclohexyl-pyrazol-3-yl]benzenesulfonamide]",–
30 to 60,1 to 3,"O=c1c(NS(=O)(=O)c2ccccc2)nc(-c2ccccc2)cn1-c1ccccc1 [Compound 120, N-(3-oxo-4,6-diphenyl-pyrazin-2-yl)benzenesulfonamide]",–
< 30,–,"O=S(=O)(Nc1cc(Cc2ccccc2)n(-c2ccccc2)n1)c1ccccc1 [Compound 71, N-(5-benzyl-1-phenyl-pyrazol-3-yl)benzenesulfonamide]",–
> 60,3 to 30,Cc1cc(NS(=O)(=O)c2ccccc2)nc(-c2cccc(C)c2C)c1 [Compound 154],–
30 to 60,3 to 30,"CC(C)=Cc1cn(-c2cccc(Cl)c2)nc1NS(=O)(=O)c1ccccc1 [Compound 85, N-[1-(3-chlorophenyl)-4-(2-methylprop-1-enyl)pyrazol-3-yl]benzenesulfonamide]",–
30 to 60,< 1,"Cc1cc(C)c(-n2nc(NS(=O)(=O)c3ccccc3)cc2-c2ccc(Cl)cc2)c(C)c1 [Compound 56, N-[5-(4-chlorophenyl)-1-(2,4,6-trimethylphenyl)pyrazol-3-yl]benzenesulfonamide]",–
> 60,3 to 30,Cc1ccc(-c2nc(NS(=O)(=O)c3ccccc3)cc(C)c2C)c(C)c1 [Compound 156],–
< 30,–,"O=S(=O)(Nc1ccnn1CC1CC1)c1ccccc1 [Compound 78, N-[2-(cyclopropylmethyl)pyrazol-3-yl]benzenesulfonamide]",–
> 60,1 to 3,"Cc1ccc(-c2ccc(NS(=O)(=O)c3ccccc3)nc2-c2ccc(C)cc2)cc1 [Compound 144, N-[5,6-bis(p-tolyl)-2-pyridyl]benzenesulfonamide]",–
30 to 60,< 1,"Cc1cc(C)c(-n2nc(NS(=O)(=O)c3ccccc3)cc2-c2cccc(Oc3ccccc3)c2)c(C)c1 [Compound 54, N-[5-(3-phenoxyphenyl)-1-(2,4,6-trimethylphenyl)pyrazol-3-yl]benzenesulfonamide]",–
< 30,–,"CC(C)(C)NC(=O)c1sc(NS(=O)(=O)c2ccccc2)nc1-c1ccccc1 [Compound 36, 2-(benzenesulfonamido)-N-tert-butyl-4-phenyl-thiazole-5-carboxamide]",–
< 30,–,"CC(C)Cc1cn(-c2ccccc2)nc1NS(=O)(=O)c1ccccc1 [Compound 82, N-(4-isobutyl-1-phenyl-pyrazol-3-yl)benzenesulfonamide]",–
> 60,3 to 30,"CC(C)c1sc(NS(=O)(=O)c2ccccc2)nc1-c1ccccc1 [Compound 17, N-(5-isopropyl-4-phenyl-thiazol-2-yl)benzenesulfonamide]",–
30 to 60,< 1,"CC1CN(c2cc(NS(=O)(=O)c3ccccc3)nc(Oc3ccccc3)n2)C(C)(C)C1 (centres unmarked) [Compound 128, N-[2-phenoxy-6-(2,2,4-trimethylpyrrolidin-1-yl)pyrimidin-4-yl]benzenesulfonamide]",–
> 60,1 to 3,"Cc1ccc(-c2cc(NS(=O)(=O)c3ccccc3)nc(-c3ccc(C)cc3)c2)cc1 [Compound 143, N-[4,6-bis(p-tolyl)-2-pyridyl]benzenesulfonamide]",–

Emax [1] [%],"EC50 (NIH 3T3 cells, F508del) [µM]",SMILES,Emax [2] [%]
< 30,–,"Cc1ccccc1-c1cn(-c2cccc(Cl)c2)nc1NS(=O)(=O)c1ccccc1 [Compound 95, N-[1-(3-chlorophenyl)-4-(o-tolyl)pyrazol-3-yl]benzenesulfonamide]",–
> 60,< 1,"Cc1cc(C)c(-n2nc(NS(=O)(=O)c3ccccc3)cc2C2CCCCC2)c(C)c1 [Compound 64, N-[5-cyclohexyl-1-(2,4,6-trimethylphenyl)pyrazol-3-yl]benzenesulfonamide]",–
30 to 60,< 1,"Cc1ccc(-c2cc(NS(=O)(=O)c3ccccc3)nn2-c2c(C)cc(C)cc2C)cc1 [Compound 61, N-[5-(p-tolyl)-1-(2,4,6-trimethylphenyl)pyrazol-3-yl]benzenesulfonamide]",–
< 30,–,"O=S(=O)(Nc1nn(Cc2ccccc2)cc1-c1ccccc1Cl)c1ccccc1 [Compound 110, N-[1-benzyl-4-(2-chlorophenyl)pyrazol-3-yl]benzenesulfonamide]",–
> 60,1 to 3,"Cc1cc(NS(=O)(=O)c2ccccc2)nc(-c2cc(C)ccc2C)c1 [Compound 135, N-[6-(2,5-Dimethylphenyl)-4-methyl-2-pyridyl]benzenesulfonamide]",–
–,–,"O=S(=O)(Nc1ccn(Cc2ccccc2)n1)c1ccccc1 [Compound 102, N-(1-benzylpyrazol-3-yl)benzenesulfonamide]",< 30
> 60,1 to 3,"CC(C)=Cc1cc(NS(=O)(=O)c2ccccc2)nn1-c1c(C)cc(C)cc1C [Compound 51, N-[5-(2-methylprop-1-enyl)-1-(2,4,6-trimethylphenyl)pyrazol-3-yl]benzenesulfonamide]",–
< 30,–,"O=S(=O)(Nc1nn(Cc2ccccc2)cc1C1CCCCC1)c1ccccc1 [Compound 103, N-(1-benzyl-4-cyclohexyl-pyrazol-3-yl)benzenesulfonamide]",–
30 to 60,1 to 3,"Nc1cccc(S(=O)(=O)Nc2nc(-c3ccccc3)c(Cc3ccccc3)s2)c1 [Compound 9, 3-amino-N-(5-benzyl-4-phenyl-thiazol-2-yl)benzenesulfonamide]",–
< 30,–,"O=S(=O)(Nc1nn(-c2ccccc2)cc1Cc1ccccc1)c1ccccc1 [Compound 74, N-(4-benzyl-1-phenyl-pyrazol-3-yl)benzenesulfonamide]",–
< 30,–,"O=S(=O)(Nc1nn(Cc2ccccc2)cc1-c1ccccc1)c1ccccc1 [Compound 107, N-(1-benzyl-4-phenyl-pyrazol-3-yl)benzenesulfonamide]",–
30 to 60,3 to 30,"CC(C)Oc1nc(NS(=O)(=O)c2ccccc2)nc(-c2ccccc2)n1 [Compound 124, N-(4-isopropoxy-6-phenyl-1,3,5-triazin-2-yl)benzenesulfonamide]",–
< 30,–,"COc1ccc(-c2cn(Cc3ccccc3)nc2NS(=O)(=O)c2ccccc2)cc1 [Compound 111, N-[1-benzyl-4-(4-methoxyphenyl)pyrazol-3-yl]benzenesulfonamide]",–
< 30,–,COc1cccc(-c2cn(Cc3ccccc3)nc2NS(=O)(=O)c2ccccc2)c1 [Compound 112],–
< 30,–,"C=C(C)c1cn(-c2c(C)cc(C)cc2C)nc1NS(=O)(=O)c1ccccc1 [Compound 97, N-[4-isopropenyl-1-(2,4,6-trimethylphenyl)pyrazol-3-yl]benzenesulfonamide]",–
30 to 60,1 to 3,"O=S(=O)(Nc1nc(-c2ccc(Cl)cc2)c(S(=O)(=O)c2ccccc2)s1)c1ccccc1 [Compound 16, N-[5-(benzenesulfonyl)-4-(4-chlorophenyl)thiazol-2-yl]benzenesulfonamide]",–
< 30,–,"Nc1cccc(S(=O)(=O)Nc2nc(-c3ccccc3)c(Cc3cccc(C(=O)O)c3)s2)c1 [Compound 28, 3-[[2-[(3-aminophenyl)sulfonylamino]-4-phenyl-thiazol-5-yl]methyl]benzoic acid]",–

SMILES,Emax [1] [%],"EC50 (NIH 3T3 cells, F508del) [µM]",Emax [2] [%]
"Cc1ccc(-c2nc(NS(=O)(=O)c3ccccc3)oc2-c2ccc(C)cc2)cc1 [Compound 3, N-[4,5-bis(p-tolyl)oxazol-2-yl]benzenesulfonamide]",–,1 to 3,> 60
"Cc1cccc(-c2cc(NS(=O)(=O)c3ccccc3)nn2-c2c(C)cc(C)cc2C)c1 [Compound 48, N-[5-(m-tolyl)-1-(2,4,6-trimethylphenyl)pyrazol-3-yl]benzenesulfonamide]",–,< 1,> 60
"O=S(=O)(Nc1nn(-c2cccc(Cl)c2)cc1-c1ccccc1)c1ccccc1 [Compound 69, N-[1-(3-chlorophenyl)-4-phenyl-pyrazol-3-yl]benzenesulfonamide]",–,1 to 3,30 to 60
"CCCc1sc(NS(=O)(=O)c2ccccc2)nc1-c1ccc(C)cc1 [Compound 5, N-[5-propyl-4-(p-tolyl)thiazol-2-yl]benzenesulfonamide]",–,< 1,> 60
"Cc1ccc(-c2nc(NS(=O)(=O)c3ccccc3)sc2-c2ccc(C)cc2)cc1 [Compound 10, N-[4,5-bis(p-tolyl)thiazol-2-yl]benzenesulfonamide]",–,< 1,30 to 60
